Reference: PubChem BioAssay AID248 (DTP/NCI, 2004)
“And” between values parts separate entries of the source, which are not always exact repeats. Identical values can stand only once. Inconclusive results and toxic doses are left out.

Tested on: L1210 leukemia ip in BDF1 mice, survival T/C
Test: NCI In Vivo Anticancer Drug Screen. Data for tumor model L1210 Leukemia (intraperitoneal) in B6D2F1 (BDF1) mice
Conditions: endpoint: mean survival time, higher = longer survival
How it was run: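 Transplantable tumor model; survival measured in treated vs vehicle control mice. Value = treated/control.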

[1] = dose: 100.0 mg/kg/injection, schedule: Q01DX001 (ip), vehicle: saline
[2] = dose: 200.0 mg/kg/injection, schedule: Q01DX001 (ip), vehicle: saline
[3] = dose: 400.0 mg/kg/injection, schedule: Q01DX001 (ip), vehicle: saline
[4] = dose: 100.0 mg/kg/injection, schedule: Q04DX002 (ip), vehicle: Klucel (hydroxypropylcellulose) (HPC)
[5] = dose: 200.0 mg/kg/injection, schedule: Q04DX002 (ip), vehicle: Klucel (hydroxypropylcellulose) (HPC)
[6] = dose: 400.0 mg/kg/injection, schedule: Q04DX002 (ip), vehicle: Klucel (hydroxypropylcellulose) (HPC)
[7] = dose: 100.0 mg/kg/injection, schedule: Q01DX001 (ip), vehicle: carboxymethylcellulose (CMC)
[8] = dose: 200.0 mg/kg/injection, schedule: Q01DX001 (ip), vehicle: carboxymethylcellulose (CMC)
[9] = dose: 400.0 mg/kg/injection, schedule: Q01DX001 (ip), vehicle: carboxymethylcellulose (CMC)

SMILES: COC(=O)c1ccccc1NC(=S)NC(=O)C(C)Oc1ccccc1 (stereo not drawn)
- T/C (dose: 100.0 mg/kg/injection, schedule: Q01DX001 (ip), vehicle: saline with Tween-80): 111 % of control
- T/C (dose: 100.0 mg/kg/injection, schedule: Q01DX009 (ip), vehicle: saline with Tween-80): 108 % of control and 109 % of control
- T/C (dose: 100.0 mg/kg/injection, schedule: Q04DX002 (ip), vehicle: saline with Tween-80): 96 % of control and 108 % of control
- T/C (dose: 100.0 mg/kg/injection, schedule: Q04DX003 (ip), vehicle: saline with Tween-80): 107 % of control
- T/C (dose: 200.0 mg/kg/injection, schedule: Q01DX001 (ip), vehicle: saline with Tween-80): 95 % of control
- T/C (dose: 200.0 mg/kg/injection, schedule: Q01DX009 (ip), vehicle: saline with Tween-80): 95 % of control and 100 % of control
- T/C (dose: 200.0 mg/kg/injection, schedule: Q04DX002 (ip), vehicle: saline with Tween-80): 98 % of control and 107 % of control
- T/C (dose: 200.0 mg/kg/injection, schedule: Q04DX003 (ip), vehicle: saline with Tween-80): 98 % of control
- T/C (dose: 400.0 mg/kg/injection, schedule: Q01DX001 (ip), vehicle: saline with Tween-80): 98 % of control
- T/C (dose: 400.0 mg/kg/injection, schedule: Q01DX009 (ip), vehicle: saline with Tween-80): 92 % of control
- T/C (dose: 400.0 mg/kg/injection, schedule: Q04DX002 (ip), vehicle: saline with Tween-80): 101 % of control and 104 % of control
- T/C (dose: 400.0 mg/kg/injection, schedule: Q04DX003 (ip), vehicle: saline with Tween-80): 106 % of control

SMILES: COc1ccc(C2(C)C(C#N)C(=O)NC(=O)C2C#N)cc1 (stereo not drawn)
- T/C [1]: 98 % of control
- T/C [2]: 122 % of control
- T/C [3]: 104 % of control

SMILES: COC1CCC(OC)(C(=O)NN)O1 (stereo not drawn)
- T/C [1]: 95 % of control
- T/C [2]: 95 % of control
- T/C [3]: 102 % of control

SMILES: ON=C1c2ccccc2-c2ccccc21
- T/C [4]: 96 % of control
- T/C [5]: 93 % of control
- T/C [6]: 104 % of control

SMILES: O=C1C=CC(=O)N1c1ccc(Cl)cc1
- T/C (dose: 10.0 mg/kg/injection, schedule: Q01DX009 (ip), vehicle: Klucel (hydroxypropylcellulose) (HPC)): 100 % of control
- T/C (dose: 10.0 mg/kg/injection, schedule: Q04DX003 (ip), vehicle: other): 97 % of control
- T/C (dose: 20.0 mg/kg/injection, schedule: Q01DX009 (ip), vehicle: Klucel (hydroxypropylcellulose) (HPC)): 88 % of control
- T/C (dose: 20.0 mg/kg/injection, schedule: Q04DX003 (ip), vehicle: other): 95 % of control
- T/C (dose: 40.0 mg/kg/injection, schedule: Q04DX003 (ip), vehicle: other): 95 % of control

SMILES: COc1ccc(CNCC(=O)O)cc1
- T/C (dose: 100.0 mg/kg/injection, schedule: Q01DX009 (ip), vehicle: saline): 100 % of control
- T/C (dose: 100.0 mg/kg/injection, schedule: Q04DX003 (ip), vehicle: saline): 96 % of control
- T/C (dose: 200.0 mg/kg/injection, schedule: Q01DX009 (ip), vehicle: saline): 100 % of control
- T/C (dose: 200.0 mg/kg/injection, schedule: Q04DX003 (ip), vehicle: saline): 98 % of control
- T/C (dose: 400.0 mg/kg/injection, schedule: Q01DX009 (ip), vehicle: saline): 105 % of control
- T/C (dose: 400.0 mg/kg/injection, schedule: Q04DX003 (ip), vehicle: saline): 96 % of control

SMILES: O=S(=O)(O)SCC1=NCCN1
- T/C (dose: 25.0 mg/kg/injection, schedule: Q04DX002 (ip), vehicle: saline): 103 % of control
- T/C (dose: 50.0 mg/kg/injection, schedule: Q04DX002 (ip), vehicle: saline): 93 % of control
- T/C (dose: 100.0 mg/kg/injection, schedule: Q04DX002 (ip), vehicle: saline): 98 % of control

SMILES: O=C1NC(=O)C(=Cc2ccccc2[N+](=O)[O-])C(=O)N1
- T/C [7]: 93 % of control
- T/C [8]: 91 % of control
- T/C [9]: 87 % of control

SMILES: CN(CC#CCOc1ccc(Cl)cc1)c1ccccc1
- T/C (dose: 12.5 mg/kg/injection, schedule: Q01DX001 (ip), vehicle: carboxymethylcellulose (CMC)): 96 % of control
- T/C (dose: 12.5 mg/kg/injection, schedule: Q01DX009 (ip), vehicle: carboxymethylcellulose (CMC)): 97 % of control and 90 % of control
- T/C (dose: 12.5 mg/kg/injection, schedule: Q04DX002 (ip), vehicle: carboxymethylcellulose (CMC)): 93 % of control and 106 % of control
- T/C (dose: 12.5 mg/kg/injection, schedule: Q04DX003 (ip), vehicle: carboxymethylcellulose (CMC)): 103 % of control
- T/C (dose: 25.0 mg/kg/injection, schedule: Q01DX001 (ip), vehicle: carboxymethylcellulose (CMC)): 96 % of control
- T/C (dose: 25.0 mg/kg/injection, schedule: Q01DX009 (ip), vehicle: carboxymethylcellulose (CMC)): 93 % of control
- T/C (dose: 25.0 mg/kg/injection, schedule: Q04DX002 (ip), vehicle: carboxymethylcellulose (CMC)): 93 % of control and 110 % of control
- T/C (dose: 25.0 mg/kg/injection, schedule: Q04DX003 (ip), vehicle: carboxymethylcellulose (CMC)): 102 % of control
- T/C (dose: 50.0 mg/kg/injection, schedule: Q01DX001 (ip), vehicle: carboxymethylcellulose (CMC)): 96 % of control
- T/C (dose: 50.0 mg/kg/injection, schedule: Q01DX009 (ip), vehicle: carboxymethylcellulose (CMC)): 93 % of control and 90 % of control
- T/C (dose: 50.0 mg/kg/injection, schedule: Q04DX002 (ip), vehicle: carboxymethylcellulose (CMC)): 92 % of control and 94 % of control
- T/C (dose: 50.0 mg/kg/injection, schedule: Q04DX003 (ip), vehicle: carboxymethylcellulose (CMC)): 97 % of control
- T/C (dose: 100.0 mg/kg/injection, schedule: Q04DX002 (ip), vehicle: carboxymethylcellulose (CMC)): 95 % of control
- T/C (dose: 200.0 mg/kg/injection, schedule: Q04DX002 (ip), vehicle: carboxymethylcellulose (CMC)): 88 % of control
- T/C (dose: 400.0 mg/kg/injection, schedule: Q04DX002 (ip), vehicle: carboxymethylcellulose (CMC)): 88 % of control

SMILES: O=CNc1ccc2c(c1)Cc1cc(Br)ccc1-2
- T/C (dose: 50.0 mg/kg/injection, schedule: Q04DX003 (ip), vehicle: Klucel (hydroxypropylcellulose) (HPC)): 97 % of control
- T/C (dose: 100.0 mg/kg/injection, schedule: Q04DX003 (ip), vehicle: Klucel (hydroxypropylcellulose) (HPC)): 101 % of control
- T/C (dose: 200.0 mg/kg/injection, schedule: Q04DX003 (ip), vehicle: Klucel (hydroxypropylcellulose) (HPC)): 97 % of control

SMILES: Cl[SiH](Cl)c1ccccc1
- T/C [1]: 96 % of control
- T/C [2]: 96 % of control
- T/C [3]: 90 % of control

SMILES: Nc1ccc2c(c1)C(=O)c1cc(N)c(Br)cc1-2
- T/C [7]: 93 % of control
- T/C [8]: 95 % of control
- T/C [9]: 98 % of control

SMILES: COc1cc(C(=O)NC(CCC(=O)O)C(=O)O)ccc1N(C)Cc1cnc2nc(N)nc(N)c2n1 (stereo not drawn)
- T/C (dose: 6.25 mg/kg/injection, schedule: Q01DX009 (ip), vehicle: sodium bicarbonate): 154 % of control
- T/C (dose: 25.0 mg/kg/injection, schedule: Q01DX009 (ip), vehicle: sodium bicarbonate): 178 % of control

SMILES: COc1cc(Cl)ccc1NC(=O)Oc1ccc(F)cc1Cl
- T/C (dose: 100.0 mg/kg/injection, schedule: Q01DX009 (ip), vehicle: Klucel (hydroxypropylcellulose) (HPC)): 104 % of control
- T/C (dose: 200.0 mg/kg/injection, schedule: Q01DX009 (ip), vehicle: Klucel (hydroxypropylcellulose) (HPC)): 108 % of control
- T/C (dose: 400.0 mg/kg/injection, schedule: Q01DX009 (ip), vehicle: Klucel (hydroxypropylcellulose) (HPC)): 106 % of control

SMILES: CCOC(=O)COc1c(C(C)(C)C)cc([N+](=O)[O-])c(C)c1[N+](=O)[O-]
- T/C [4]: 100 % of control
- T/C [5]: 91 % of control
- T/C [6]: 106 % of control

SMILES: O=C(Nc1ccc(C2=NCCN2)cc1)c1ccc(Cl)c(C(=O)Nc2ccc(C3=NCCN3)cc2)c1
- T/C (dose: 2.0 mg/kg/injection, schedule: Q01DX Z (ip), vehicle: carboxymethylcellulose (CMC)): 97 % of control
- T/C (dose: 3.75 mg/kg/injection, schedule: Q01DX Z (ip), vehicle: water): 102 % of control
- T/C (dose: 4.0 mg/kg/injection, schedule: Q01DX Z (ip), vehicle: carboxymethylcellulose (CMC)): 98 % of control
- T/C (dose: 7.5 mg/kg/injection, schedule: Q01DX Z (ip), vehicle: carboxymethylcellulose (CMC)): 106 % of control
- T/C (dose: 7.5 mg/kg/injection, schedule: Q01DX Z (ip), vehicle: water): 102 % of control
- T/C (dose: 15.0 mg/kg/injection, schedule: Q01DX Z (ip), vehicle: carboxymethylcellulose (CMC)): 95 % of control
- T/C (dose: 15.0 mg/kg/injection, schedule: Q01DX Z (ip), vehicle: saline): 115 % of control and 92 % of control
- T/C (dose: 15.0 mg/kg/injection, schedule: Q01DX Z (ip), vehicle: water): 106 % of control
- T/C (dose: 30.0 mg/kg/injection, schedule: Q01DX Z (ip), vehicle: saline): 118 % of control and 97 % of control
- T/C (dose: 60.0 mg/kg/injection, schedule: Q01DX Z (ip), vehicle: saline): 100 % of control

SMILES: CCn1c(=O)cc(C)c2ccccc21
- T/C (dose: 75.0 mg/kg/injection, schedule: Q01DX001 (ip), vehicle: carboxymethylcellulose (CMC)): 104 % of control
- T/C (dose: 150.0 mg/kg/injection, schedule: Q01DX001 (ip), vehicle: carboxymethylcellulose (CMC)): 104 % of control
- T/C (dose: 300.0 mg/kg/injection, schedule: Q01DX001 (ip), vehicle: carboxymethylcellulose (CMC)): 96 % of control
